Reference: patent publication US5834259A, “Process and composition for preparing D-aspartic acid” (Monsanto Company, priority 1996, dated 1998)

Molecular target: T1, L-aspartate-α-decarboxylase (Escherichia coli, UniProt P0A790)
T1 construct: expressed in transfected cells; host or cells: E. coli W3110 transformed with pIF309 = strain NS3291 (ATCC 98675), whole cells
Assay: Re-use of cells on fresh 0.5M D/L-aspartate (Example 5)
Type: biochemical, E. coli K12
Conditions: re-used cells, 37° C.
Experimental: Cells that had already been used in Example 3 were put in fresh substrate to determine if they were still active.
Fresh D/L-aspartate substrate was prepared as previously described in Example 3. The cells from Example 3 were resuspended in deionized H2 O and made up to 100 ml. The pH of the substrate (900 ml, 0.5M D/L-Asp) was adjusted to 7.0 with NaOH. After placing in the 2 L fermentor, the cells (100 ml) were added. There was no pH control and deionized H2 O was used for substrate. Samples were removed over time, centrifuged and the supernatant fluid diluted appropriately for both D- and L-aspartic acid determination. Temperature was set at 37° C.

T1 sequence (P0A790 25-126): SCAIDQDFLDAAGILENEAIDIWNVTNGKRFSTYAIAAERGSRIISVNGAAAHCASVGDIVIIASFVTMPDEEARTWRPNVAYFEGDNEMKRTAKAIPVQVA
T1 sequence (P0A790 1-24): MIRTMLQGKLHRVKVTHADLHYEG

Row | Structure (SMILES) | concentration in supernatant fluid (0.0000 hr) [mg/mL] | concentration in supernatant fluid (6.2500 hr) [mg/mL] | percent remaining (6.2500 hr) [%] | concentration in supernatant fluid (15.250 hr) [mg/mL] | percent remaining (15.250 hr) [%] | concentration in supernatant fluid (25.750 hr) [mg/mL] | percent remaining (25.750 hr) [%] | concentration in supernatant fluid (28.000 hr) [mg/mL] | percent remaining (28.000 hr) [%] | concentration in supernatant fluid (44.250 hr) [mg/mL] | percent remaining (44.250 hr) [%] | concentration in supernatant fluid (63.500 hr) [mg/mL] | percent remaining (63.500 hr) [%] | concentration in supernatant fluid (65.000 hr) [mg/mL] | percent remaining (65.000 hr) [%]
1 | N[C@H](CC(=O)O)C(=O)O [D-Asp, D-aspartic acid] | 30.850 | 30.820 | 99.903 | 29.870 | 96.823 | 28.250 | 91.572 | 27.980 | 90.697 | 25.000 | 81.037 | 21.760 | 70.535 | 20.340 | 65.932
2 | N[C@@H](CC(=O)O)C(=O)O [L-Asp, L-aspartic acid] | 24.700 | 17.130 | 69.352 | 15.620 | 63.239 | 10.870 | 44.008 | 9.5300 | 38.583 | 4.4200 | 17.895 | 0.98 | 3.9676 | 0.95 | 3.8462
